Assays:
Bacillus cereus = assay: Antimicrobial activity against Bacillus cereus ATCC 21772 by broth macrodilution method; type: functional
Candida albicans = assay: Antifungal activity against Candida albicans SC5314 by broth macrodilution method; type: functional

Row | MIC (Bacillus cereus) | MIC (Candida albicans) | Compound
1 | > 50 µg/mL | – | C=C1C[C@H](O)[C@H](Br)C(C)(C)[C@@]12CCC(C)=C(Cl)C2 [ELATOL]
2 | > 50 µg/mL | > 50 µg/mL | C=C1C[C@@H](O)[C@@H](Br)C(C)(C)[C@]12CC[C@@](C)(Br)[C@H](Cl)C2 [OBTUSOL]

Source: ChEMBL document CHEMBL1949643, “Dactylomelatriol, a biogenetically intriguing omphalane-derived marine sesquiterpene” (2012)
